Measured values from patent US8937089B2, “Synergistic mixtures of anthranilamide invertebrate pest control agents” (priority 2004, dated 2015).

Columns and labels:
Test in all cases: whole plant or invertebrate
Assay type in all cases: in vivo
[1] = system: silverleaf whitefly (Bemisia argentifolii Bellows and Perring); conditions: Table 2B
Outline: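 Whitefly-egg-infested 12–14-day-old cotton plants sprayed with compound in 10% acetone/90% water plus 300 ppm non-ionic surfactant, in triplicate. Plants then held 13 days at 28 °C and 50–70% relative humidity before mortality assessment.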

[2] = system: western flower thrip (Frankliniella occidentalis Pergande); conditions: single compound, spray, 7 days
Outline: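 Bean plants aged 5–7 days received a spray of test solution (10% acetone, 90% water, 300 ppm surfactant), in triplicate. Adult thrips (22–27 per unit) were introduced once the plants had dried for 1 h. Incubation lasted 7 days at 25° C and 45–55% RH.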

[3] = system: potato leafhopper (Empoasca fabae Harris); conditions: alone
Outline: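 Contact and/or systemic test: five adult leafhoppers aged 18–21 days were released onto Longio bean plants 1 h after spraying. The spray was 1 mL per unit in acetone/water (10:90) with 300 ppm non-ionic surfactant, run in triplicate. Plants were kept 6 days in a growth chamber at 19–21 °C and 50–70% humidity.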

[4] = system: corn planthopper (Peregrines maidis); conditions: Corn Plant Hopper
Outline: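 Contact/systemic test on corn planthopper: 10–20 nymphs (18- to 20-day-old) released onto young maize plants 1 h after spraying, with three replicate units per treatment. Spray solution was acetone/water 10:90 containing 300 ppm non-ionic spreader; units kept 6 days at 19-21° C., 50-70% RH.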

[5] = system: cotton melon aphid (Aphis gossypii Glover)
Outline: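 Sprays in acetone–water with 300 ppm non-ionic surfactant, at ppm concentrations, applied to aphid-infested (30–40 per plant) 6–7-day cotton, in triplicate. Evaluation after 6 days in a growth chamber at 19–21 °C and 50–70% relative humidity, covering contact and/or systemic action.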

[6] = system: green peach aphid (Myzus persicae Sulzer); conditions: Green Peach Aphid
Outline: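 Compounds formulated in 10% acetone/water with 300 ppm X-77 surfactant were atomized onto aphid-infested radish seedlings, with three replicates per treatment. Infestation was 30–40 aphids transferred on excised leaf pieces, covering contact and systemic exposure. Test units stayed 6 days in a growth chamber at 19–21 °C and 50–70% relative humidity.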

| Substance | % mortality (obs) ([1]; rate 10 ppm) | % mortality (obs) ([2]; rate 1 ppm) | % mortality (obs) ([2]; rate 100 ppm) | % mortality (obs) ([2]; rate 1000 ppm) | % mortality (obs) ([3]; rate 1000 ppm) | % mortality (obs) ([4]; rate 1000 ppm) | % mortality (obs) ([5]; rate 1000 ppm) | % mortality (obs) ([6]; rate 1000 ppm) | % mortality (obs) ([1]; rate 100 ppm) | % mortality (obs) ([2]; rate 10 ppm) | % mortality (obs) ([4]; rate 10 ppm) | % mortality (obs) ([4]; rate 30 ppm) | % mortality (obs) ([5]; rate 2 ppm) | % mortality (obs) ([1]; rate 25 ppm) | % mortality (obs) ([3]; rate 0.5 ppm) | % mortality (obs) ([4]; rate 100 ppm) | % mortality (obs) ([5]; rate 1.5 ppm) | % mortality (obs) ([6]; rate 10 ppm) | % mortality (obs) ([1]; rate 15 ppm) | further results |
| --- | --- | --- | --- | --- | --- | --- | --- | --- | --- | --- | --- | --- | --- | --- | --- | --- | --- | --- | --- | --- |
| Novaluron | 0% | 50% | 50% | 80% | 0% | 100% | 29% | 25% | – | – | – | – | – | – | – | – | – | – | – | % mortality (obs) ([1]; rate 2 ppm): 2%; % mortality (obs) ([1]; rate 250 ppm): 28%; % mortality (obs) ([3]; rate 250 ppm): 7%; % mortality (obs) ([3]; rate 500 ppm): 7%; % mortality (obs) ([4]; rate 250 ppm): 7%; % mortality (obs) ([4]; rate 500 ppm): 5%; % mortality (obs) ([5]; rate 50 ppm): 28%; % mortality (obs) ([5]; rate 250 ppm): 30%; % mortality (obs) ([6]; rate 250 ppm): 14%; % mortality (obs) ([6]; rate 500 ppm): 24% |
| Pymetrozine | 3% | – | 100% | 100% | – | – | – | – | 7% | 100% | 29% | 89% | 62% | – | – | – | – | – | – | % mortality (obs) ([1]; rate 1000 ppm): 52%; % mortality (obs) ([3]; rate 2 ppm): 0%; % mortality (obs) ([3]; rate 15 ppm): 13%; % mortality (obs) ([3]; rate 200 ppm): 60%; % mortality (obs) ([4]; rate 2 ppm): 51%; % mortality (obs) ([5]; rate 0.1 ppm): 22%; % mortality (obs) ([5]; rate 0.5 ppm): 38%; % mortality (obs) ([6]; rate 0.1 ppm): 13%; % mortality (obs) ([6]; rate 0.5 ppm): 41%; % mortality (obs) ([6]; rate 2 ppm): 79% |
| Pyridalyl | 0% | – | – | – | – | 11% | – | – | 0% | – | 2% | – | 32% | 0% | 13% | 6% | 34% | 8% | – | % mortality (obs) ([2]; rate 5 ppm): 30%; % mortality (obs) ([2]; rate 50 ppm): 60%; % mortality (obs) ([2]; rate 500 ppm): 100%; % mortality (obs) ([3]; rate 5 ppm): 13%; % mortality (obs) ([3]; rate 50 ppm): 7%; % mortality (obs) ([5]; rate 1 ppm): 22%; % mortality (obs) ([6]; rate 1 ppm): 18%; % mortality (obs) ([6]; rate 20 ppm): 3% |
| Pyriproxyfen | 100% | – | 100% | 100% | 7% | 12% | 33% | 26% | – | 100% | 0% | – | – | – | – | 8% | – | 23% | 100% | % mortality (obs) ([1]; rate 20 ppm): 100%; % mortality (obs) ([3]; rate 10 ppm): 13%; % mortality (obs) ([3]; rate 100 ppm): 0%; % mortality (obs) ([5]; rate 10 ppm): 14%; % mortality (obs) ([5]; rate 100 ppm): 28%; % mortality (obs) ([6]; rate 100 ppm): 12% |
| Thiacloprid | – | 20% | 30% | – | – | – | – | – | – | – | – | 100% | – | 83% | 93% | – | 100% | – | 40% | % mortality (obs) ([1]; rate 35 ppm): 61%; % mortality (obs) ([2]; rate 3000 ppm): 40%; % mortality (obs) ([3]; rate 0.2 ppm): 73%; % mortality (obs) ([3]; rate 1.5 ppm): 80%; % mortality (obs) ([4]; rate 0.3 ppm): 6%; % mortality (obs) ([4]; rate 3 ppm): 100%; % mortality (obs) ([5]; rate 0.3 ppm): 50%; % mortality (obs) ([5]; rate 6 ppm): 100%; % mortality (obs) ([6]; rate 0.2 ppm): 13%; % mortality (obs) ([6]; rate 0.3 ppm): 68%; % mortality (obs) ([6]; rate 0.4 ppm): 42% |
